Tests used:
Adenosine receptor A2a = Adenosine receptor A2a (Homo sapiens, UniProt P29274); assay: Displacement of [3H]ZM-241385 from recombinant human adenosine A2A receptor expressed in HeLa cells at 0.1 uM
[1] = target: T1, Adenosine receptor A2b (Homo sapiens) (UniProt P29275); assay: Displacement of [3H]DPCPX from recombinant human adenosine A2B receptor expressed in HEK293 cells at 0.1 uM; format: cell-based
T1 sequence (whole entry): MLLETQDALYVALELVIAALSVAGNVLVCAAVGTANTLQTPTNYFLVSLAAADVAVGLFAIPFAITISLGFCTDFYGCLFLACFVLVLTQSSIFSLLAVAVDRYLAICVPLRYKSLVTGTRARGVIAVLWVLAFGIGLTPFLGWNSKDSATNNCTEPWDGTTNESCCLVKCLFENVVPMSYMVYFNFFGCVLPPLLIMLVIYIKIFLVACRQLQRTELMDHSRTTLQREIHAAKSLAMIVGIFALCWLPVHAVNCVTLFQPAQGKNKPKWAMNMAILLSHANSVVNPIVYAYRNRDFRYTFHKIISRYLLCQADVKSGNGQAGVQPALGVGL

Adenosine receptor A2b = target: T2, Adenosine receptor A2b (Homo sapiens, UniProt P29275)
T2 sequence (P29275 whole entry): T1 sequence (whole entry)
Description: Binding affinity to recombinant human adenosine A2B receptor

[2] = target: T1, Adenosine receptor A2b (Homo sapiens); assay: Displacement of [3H]DPCPX from recombinant human adenosine A2B receptor expressed in HEK293 cells at 0.01 uM

Chain of Adenosine receptor A2a (P29274 whole entry): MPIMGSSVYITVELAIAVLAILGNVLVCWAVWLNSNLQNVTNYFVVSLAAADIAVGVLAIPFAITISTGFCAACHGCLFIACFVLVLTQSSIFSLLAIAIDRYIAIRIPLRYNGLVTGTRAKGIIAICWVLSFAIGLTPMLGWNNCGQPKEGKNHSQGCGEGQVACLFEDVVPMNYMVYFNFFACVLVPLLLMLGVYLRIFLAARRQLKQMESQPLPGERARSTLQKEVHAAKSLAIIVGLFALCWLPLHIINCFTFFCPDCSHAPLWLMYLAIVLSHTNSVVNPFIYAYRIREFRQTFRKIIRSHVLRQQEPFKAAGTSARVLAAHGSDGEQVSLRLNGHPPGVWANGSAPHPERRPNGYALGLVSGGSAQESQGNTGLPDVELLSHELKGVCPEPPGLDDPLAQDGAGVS

Row | SMILES | inhibition (Adenosine receptor A2a) | inhibition [1] | Ki (Adenosine receptor A2b) | inhibition [2]
1 | CC(Oc1ccc(-c2cc3c([nH]2)c(=O)n(C)c(=O)n3C)cc1)C(=O)Nc1ccc(F)cc1 (stereo unspecified) | 70% | 99% | 3.89 nM | 76%
2 | Cn1c(=O)c2[nH]c(-c3ccc(OCC(=O)Nc4nc5ccccc5[nH]4)cc3)cc2n(C)c1=O | 34% | 80% | 20 nM | 24%
3 | CCCn1c(=O)c2[nH]c(-c3ccc(OCC(=O)Nc4ccc(CC(=O)OCC)cc4)cc3)cc2n(C)c1=O | 0% | 35% | 132 nM | 10%
4 | CCCn1c(=O)c2[nH]c(-c3ccc(OCC(=O)Nc4ccc(S(N)(=O)=O)cc4)cc3)cc2n(CCC)c1=O | 37% | 53% | 200 nM | 10%
5 | CCCn1c(=O)c2[nH]c(-c3ccc(OCC(=O)Nc4ccc(C(C)=O)cc4)cc3)cc2n(CCC)c1=O | 15% | 62% | 20 nM | 24%
6 | CCCn1c(=O)c2[nH]c(-c3ccc(OCC(=O)Nc4ccc(C)cc4)cc3)cc2n(CCC)c1=O | 44% | 81% | 14.1 nM | 27%
7 | CCCn1c(=O)c2[nH]c(-c3ccc(OCC(=O)Nc4ccc(I)cc4)cc3)cc2n(C)c1=O | 24% | 97% | 5.89 nM | 51%
8 | COc1cc(-c2cc3c([nH]2)c(=O)n(C)c(=O)n3C)ccc1OCC(=O)O | 5% | 15% | 269 nM | –
9 | COc1cc(OCC(=O)O)ccc1-c1cc2c([nH]1)c(=O)n(C)c(=O)n2C | 1% | 3% | 1550 nM | –
10 | CCCn1c(=O)c2[nH]c(-c3ccc(OCC(=O)NCc4ccc(Cl)cc4)cc3)cc2n(C)c1=O | 20% | 76% | 20.4 nM | 33%
11 | CCOC(=O)COc1ccc(-c2cc3c([nH]2)c(=O)n(C)c(=O)n3C)c(OC)c1 | 11% | 10% | 2190 nM | –
12 | CCCn1c(=O)c2[nH]c(-c3ccc(OCC(=O)Nc4cc(C)ccn4)cc3)cc2n(CCC)c1=O | 34% | 60% | – | 25%
13 | CCCn1c(=O)c2[nH]c(-c3ccc(OCC(=O)Nc4ccccc4)cc3OC)cc2n(CCC)c1=O | 35% | 17% | – | 3%
14 | CCCn1c(=O)c2[nH]c(-c3ccc(OCC(=O)Nc4ccc(C(=O)c5ccccc5)cc4)cc3)cc2n(CCC)c1=O | 13% | 51% | 77.6 nM | 11%
15 | CCCn1c(=O)c2[nH]c(-c3ccc(OCC(=O)NC(C(=O)O)c4ccccc4)cc3)cc2n(CCC)c1=O (stereo unspecified) | 3% | 45% | – | 38%
16 | O=C(COc1ccc(-c2cc3c([nH]2)c(=O)n(CC(F)(F)F)c(=O)n3CC(F)(F)F)cc1)Nc1ccccc1 | 4% | 57% | – | 15%
17 | CCCn1c(=O)c2[nH]c(-c3ccc(OC(C)(C)C(=O)O)cc3)cc2n(CCC)c1=O | 6% | 26% | – | 12%
18 | Cn1c(=O)c2[nH]c(-c3ccc(OCC(=O)Nc4cnccn4)cc3)cc2n(C)c1=O | 20% | 44% | – | 11%
19 | CCCn1c(=O)c2[nH]c(-c3ccc(OCC(=O)Nc4ccc(F)cc4)cc3OC)cc2n(CCC)c1=O | 43% | 27% | – | 16%
20 | CCCn1c(=O)c2[nH]c(-c3ccc(OCC(=O)Nc4ccc(Br)cc4)cc3OC)cc2n(CCC)c1=O | 39% | 64% | – | 18%
21 | Cn1c(=O)c2[nH]c(-c3ccc(OCC(=O)Nc4ccc(F)cc4)cc3)cc2n(CCN2CCOCC2)c1=O | 10% | 27% | – | 16%
22 | CC(=O)c1ccc(NC(=O)COc2ccc(-c3cc4c([nH]3)c(=O)n(C)c(=O)n4C)cc2)cc1 | 36% | 91% | 3.55 nM | 65%
